Data reported in the OligoGym collection.
Oligonucleotides are written 5' to 3', each unit as a sugar letter and its base; * is a phosphorothioate linkage, no mark a phosphodiester; rarer units and linkages stand in square brackets, end groups in braces. Plain capitals give the bases only. d = 2'-deoxy (DNA); r = 2'-OH (RNA)

Each substance was assayed against UBE2M (assay: reporter assay of Huesken 2005). Details: siRNA.
Also: test concentration or dose not given here.

| Substance | normalised inhibition (eCFP-eYFP dual reporter) [%] |
| --- | --- |
| sense rArArCrGrUrGrCrArGrCrGrCrUrCrCrArUrGrCdTdT / antisense rGrCrArUrGrGrArGrCrGrCrUrGrCrArCrGrUrUdCdT | 61.2 |
| sense rArArCrUrCrCrArUrArArUrUrUrArUrGrGrCrCdTdT / antisense rGrGrCrCrArUrArArArUrUrArUrGrGrArGrUrUdTdA | 49.7 |

The substances below were run against UBE2C (assay: reporter assay of Huesken 2005). Details: siRNA.

| Substance | normalised inhibition (eCFP-eYFP dual reporter) [%] |
| --- | --- |
| sense rArUrGrUrCrArGrGrArCrCrArUrUrCrUrGrCrUdTdT / antisense rArGrCrArGrArArUrGrGrUrCrCrUrGrArCrArUdCdA | 56.5 |
| sense rCrArCrCrCrCrArArCrGrUrGrGrArCrArCrCrCdTdT / antisense rGrGrGrUrGrUrCrCrArCrGrUrUrGrGrGrGrUrGdAdT | 11.6 |
| sense rCrArGrArGrCrCrUrUrCrUrArGrGrArGrArArCdTdT / antisense rGrUrUrCrUrCrCrUrArGrArArGrGrCrUrCrUrGdGdA | 75.5 |
| sense rCrArGrGrArCrCrArUrUrCrUrGrCrUrCrUrCrCdTdT / antisense rGrGrArGrArGrCrArGrArArUrGrGrUrCrCrUrGdAdC | 45.4 |
| sense rCrArGrUrArUrArUrGrArArGrArCrCrUrGrArGdTdT / antisense rCrUrCrArGrGrUrCrUrUrCrArUrArUrArCrUrGdTdT | 82.2 |
| sense rCrArUrCrCrArGrArGrCrCrUrUrCrUrArGrGrAdTdT / antisense rUrCrCrUrArGrArArGrGrCrUrCrUrGrGrArUrGdGdA | 78.6 |
| sense rCrArUrGrCrUrGrCrCrGrArGrCrUrCrUrGrGrAdTdT / antisense rUrCrCrArGrArGrCrUrCrGrGrCrArGrCrArUrGdTdG | 90.5 |
| sense rCrArUrUrCrUrGrCrUrCrUrCrCrArUrCrCrArGdTdT / antisense rCrUrGrGrArUrGrGrArGrArGrCrArGrArArUrGdGdT | 79.7 |
| sense rCrCrArCrArGrUrGrArArGrUrUrCrCrUrCrArCdTdT / antisense rGrUrGrArGrGrArArCrUrUrCrArCrUrGrUrGrGdGdC | 74.3 |
| sense rCrCrArUrCrCrArUrGrGrArGrCrArGrCrUrGrGdTdT / antisense rCrCrArGrCrUrGrCrUrCrCrArUrGrGrArUrGrGdTdC | 80.7 |
| sense rCrCrCrArGrUrGrGrCrUrArCrCrCrUrUrArCrAdTdT / antisense rUrGrUrArArGrGrGrUrArGrCrCrArCrUrGrGrGdGdA | 85.7 |
| sense rCrCrCrCrArGrUrGrGrCrUrArCrCrCrUrUrArCdTdT / antisense rGrUrArArGrGrGrUrArGrCrCrArCrUrGrGrGrGdAdA | 67.7 |
| sense rCrCrCrUrGrCrUrArUrCrArCrCrCrCrArArCrGdTdT / antisense rCrGrUrUrGrGrGrGrUrGrArUrArGrCrArGrGrGdCdG | 53.1 |
| sense rCrCrUrGrGrArCrArUrCrCrUrGrArArGrGrArAdTdT / antisense rUrUrCrCrUrUrCrArGrGrArUrGrUrCrCrArGrGdCdA | 74.2 |
| sense rCrCrUrGrUrArUrGrArUrGrUrCrArGrGrArCrCdTdT / antisense rGrGrUrCrCrUrGrArCrArUrCrArUrArCrArGrGdGdC | 42 |
| sense rCrGrCrUrArGrArGrUrUrCrCrCrCrArGrUrGrGdTdT / antisense rCrCrArCrUrGrGrGrGrArArCrUrCrUrArGrCrGdAdG | 86.9 |
| sense rCrUrArUrCrArCrCrCrCrArArCrGrUrGrGrArCdTdT / antisense rGrUrCrCrArCrGrUrUrGrGrGrGrUrGrArUrArGdCdA | 77.2 |
| sense rCrUrCrCrArUrCrCrArGrArGrCrCrUrUrCrUrAdTdT / antisense rUrArGrArArGrGrCrUrCrUrGrGrArUrGrGrArGdAdG | 81.9 |
| sense rCrUrGrArGrGrUrArUrArArGrCrUrCrUrCrGrCdTdT / antisense rGrCrGrArGrArGrCrUrUrArUrArCrCrUrCrArGdGdT | 75.8 |
| sense rCrUrUrCrUrArGrGrArGrArArCrCrCrArArCrAdTdT / antisense rUrGrUrUrGrGrGrUrUrCrUrCrCrUrArGrArArGdGdC | 86.1 |
| sense rGrArArCrArCrArCrArUrGrCrUrGrCrCrGrArGdTdT / antisense rCrUrCrGrGrCrArGrCrArUrGrUrGrUrGrUrUrCdAdA | 89.6 |
| sense rGrArArCrArGrUrArUrArUrGrArArGrArCrCrUdTdT / antisense rArGrGrUrCrUrUrCrArUrArUrArCrUrGrUrUrCdCdA | 86.9 |
| sense rGrArArGrGrArArArArGrUrGrGrUrCrUrGrCrCdTdT / antisense rGrGrCrArGrArCrCrArCrUrUrUrUrCrCrUrUrCdAdG | 63.3 |
| sense rGrArArGrUrUrCrCrUrCrArCrGrCrCrCrUrGrCdTdT / antisense rGrCrArGrGrGrCrGrUrGrArGrGrArArCrUrUrCdAdC | 40.9 |
| sense rGrArGrArArCrCrCrArArCrArUrUrGrArUrArGdTdT / antisense rCrUrArUrCrArArUrGrUrUrGrGrGrUrUrCrUrCdCdT | 66.3 |

| Substance | normalised inhibition (eCFP-eYFP dual reporter) [%] |
| --- | --- |
| sense rGrArGrCrArGrCrUrGrGrArArCrArGrUrArUrAdTdT / antisense rUrArUrArCrUrGrUrUrCrCrArGrCrUrGrCrUrCdCdA | 85.2 |
| sense rGrArUrGrUrCrArGrGrArCrCrArUrUrCrUrGrCdTdT / antisense rGrCrArGrArArUrGrGrUrCrCrUrGrArCrArUrCdAdT | 48.8 |
| sense rGrCrCrCrArCrArGrUrGrArArGrUrUrCrCrUrCdTdT / antisense rGrArGrGrArArCrUrUrCrArCrUrGrUrGrGrGrCdGdC | 46.7 |
| sense rGrCrCrCrUrGrCrUrArUrCrArCrCrCrCrArArCdTdT / antisense rGrUrUrGrGrGrGrUrGrArUrArGrCrArGrGrGrCdGdT | 63.4 |
| sense rGrCrCrUrGrGrArCrArUrCrCrUrGrArArGrGrAdTdT / antisense rUrCrCrUrUrCrArGrGrArUrGrUrCrCrArGrGrCdAdT | 85.8 |
| sense rGrCrCrUrUrCrUrArGrGrArGrArArCrCrCrArAdTdT / antisense rUrUrGrGrGrUrUrCrUrCrCrUrArGrArArGrGrCdTdC | 92.8 |
| sense rGrCrGrCrCrCrArCrArGrUrGrArArGrUrUrCrCdTdT / antisense rGrGrArArCrUrUrCrArCrUrGrUrGrGrGrCrGrCdAdT | 70.9 |
| sense rGrCrUrArGrArGrUrUrCrCrCrCrArGrUrGrGrCdTdT / antisense rGrCrCrArCrUrGrGrGrGrArArCrUrCrUrArGrCdGdA | 69 |
| sense rGrCrUrArUrCrArCrCrCrCrArArCrGrUrGrGrAdTdT / antisense rUrCrCrArCrGrUrUrGrGrGrGrUrGrArUrArGrCdAdG | 89.4 |
| sense rGrCrUrGrGrArArCrArGrUrArUrArUrGrArArGdTdT / antisense rCrUrUrCrArUrArUrArCrUrGrUrUrCrCrArGrCdTdG | 90.4 |
| sense rGrGrUrArUrArArGrCrUrCrUrCrGrCrUrArGrAdTdT / antisense rUrCrUrArGrCrGrArGrArGrCrUrUrArUrArCrCdTdC | 91.3 |
| sense rGrGrUrCrUrGrCrCrCrUrGrUrArUrGrArUrGrUdTdT / antisense rArCrArUrCrArUrArCrArGrGrGrCrArGrArCrCdAdC | 55.5 |
| sense rGrUrGrGrCrUrArCrCrCrUrUrArCrArArUrGrCdTdT / antisense rGrCrArUrUrGrUrArArGrGrGrUrArGrCrCrArCdTdG | 87.8 |
| sense rUrArArGrCrUrCrUrCrGrCrUrArGrArGrUrUrCdTdT / antisense rGrArArCrUrCrUrArGrCrGrArGrArGrCrUrUrAdTdA | 60.2 |
| sense rUrArGrArGrUrUrCrCrCrCrArGrUrGrGrCrUrAdTdT / antisense rUrArGrCrCrArCrUrGrGrGrGrArArCrUrCrUrAdGdC | 67.2 |
| sense rUrArGrUrCrCrCrUrUrGrArArCrArCrArCrArUdTdT / antisense rArUrGrUrGrUrGrUrUrCrArArGrGrGrArCrUrAdTdC | 76.1 |
| sense rUrArUrGrArUrGrUrCrArGrGrArCrCrArUrUrCdTdT / antisense rGrArArUrGrGrUrCrCrUrGrArCrArUrCrArUrAdCdA | 32.1 |
| sense rUrCrCrUrGrArArGrGrArArArArGrUrGrGrUrCdTdT / antisense rGrArCrCrArCrUrUrUrUrCrCrUrUrCrArGrGrAdTdG | 71.8 |
| sense rUrCrUrArGrGrArGrArArCrCrCrArArCrArUrUdTdT / antisense rArArUrGrUrUrGrGrGrUrUrCrUrCrCrUrArGrAdAdG | 88.8 |
| sense rUrGrArArCrArCrArCrArUrGrCrUrGrCrCrGrAdTdT / antisense rUrCrGrGrCrArGrCrArUrGrUrGrUrGrUrUrCrAdAdG | 86.5 |
| sense rUrGrArGrGrUrArUrArArGrCrUrCrUrCrGrCrUdTdT / antisense rArGrCrGrArGrArGrCrUrUrArUrArCrCrUrCrAdGdG | 80.6 |
| sense rUrGrCrCrCrUrGrUrArUrGrArUrGrUrCrArGrGdTdT / antisense rCrCrUrGrArCrArUrCrArUrArCrArGrGrGrCrAdGdA | 50.8 |
| sense rUrGrCrCrUrGrGrArCrArUrCrCrUrGrArArGrGdTdT / antisense rCrCrUrUrCrArGrGrArUrGrUrCrCrArGrGrCrAdTdA | 49.2 |
| sense rUrGrGrCrUrArCrCrCrUrUrArCrArArUrGrCrGdTdT / antisense rCrGrCrArUrUrGrUrArArGrGrGrUrArGrCrCrAdCdT | 61.3 |
| sense rUrGrGrUrCrUrGrCrCrCrUrGrUrArUrGrArUrGdTdT / antisense rCrArUrCrArUrArCrArGrGrGrCrArGrArCrCrAdCdT | 28.6 |
